Source: patent US20040087030A1, “Method for the regeneration of cotton” (priority 1998, published 2004)

Experiments:
Format in all cases: cell-based, cotton (Coker 312)
[1] = test system: transgenic cotton calli (Coker 312); experiment: Induction of embryogenesis in transgenic cotton callus on induction media with antioxidant (ascorbic acid)
Description: […] This culture was maintained at 28° C. under conditions of dark or limited lighting. The dark or limited lighting conditions were accomplished using a black bag, a covering of aluminum foil, or by incubating in a dark growth chamber. Alternatively, the transgenic calli may be incubated under green light. The incubation is continued for about eight to ten weeks.

[2] = test system: embryogenic cotton calli; experiment: Embryogenic callus formation on induction media with ethylene inhibitors; conditions: 40 calli tested
Description: The transgenic calli were removed from the hypocotyls and transferred to a culture containing hormone-free media comprising the following components per liter: 4.4 g MS salts with B5 vitamins; 30 g glucose, pH 5.8; an antioxidant, such as ascorbic acid (10-100 mg); an ethylene inhibitor, such as aminoethoxyvinylglycine at approximately 5 μM; GELRITE or PHYTAGEL (2-3 g); and selective agents as described above. This culture was maintained at 28° C. under conditions of dark or limited lighting. The dark or limited lighting conditions were accomplished using a black bag, a covering of aluminum foil, or by incubating in a dark growth chamber. Alternatively, the transgenic calli may be incubated under green light. The incubation is continued for about eight to ten weeks.
In two separate experiments, the ethylene inhibitors AVG (aminoethoxy-vinylglycine), DNP (2,4-dinitrophenol), and salicylic acid were tested to determine their influence on the induction of embryogenic cotton calli.

[3] = test system: cotton embryos; experiment: Embryo germination on germination media with varying carbohydrate concentration
Description: The preparation of Agrobacterium, seed sterilization, seed germination, inoculation, co-culture, and selection were performed as described in Example 1. Embryos were induced as outlined in Examples 2, 3, and 4. After eight weeks, the embryogenic tissue that formed was transferred to an embryo maturation media as described in Examples 5 and 6. Cultures were monitored for the presence of actively growing embryos.
About every four weeks, actively growing tissue and small embryos were removed and placed on fresh maturation media. The embryos were spaced on the culture plates with adequate room for growth. The tissue was returned to the warm room and incubated under the same growth conditions.
Embryos larger than about 5 mm were transferred to a germination media (Stewart and Hsu, Planta 137:113-117, […]) with various carbohydrate concentrations and 0.25 g/L GELRITE. The embryos are incubated at 28° C. in a lighted incubator with a 16/8 day/night cycle.
Various concentrations of glucose and sucrose in the germination media were tested. The germination media comprised sucrose or glucose at concentrations ranging from about 0%-2% (w/v).

[4] = pMON20956 vector, ascorbic acid 100 mg/L
[5] = 0.1% carbohydrate in germination media
[6] = 0.5% carbohydrate in germination media
[7] = 1% carbohydrate in germination media
[8] = 2% carbohydrate in germination media

O=C1O[C@H]([C@@H](O)CO)C(O)=C1O [Ascorbic Acid, ascorbic acid]
effect on frequency of embryogenesis ([1]; Coker 312, two independent experiments): increase the frequency of embryogenesis
% Embryogenic Calli Transfer 1 [1, 4]: 3%
% Embryogenic Calli Transfer 2 [1, 4]: 31%
Total Frequency of Embryogenesis [1, 4]: 34%

O=C(O)c1ccccc1O [salicylic acid]
Embryogenic Calli Formed ([2]; Expt 1 pMON10517, 50 μM): 12
Frequency of Formation ([2]; Expt 1 pMON10517, 50 μM): 30%
Embryogenic Calli Formed ([2]; Expt 2 pMON10079, 50 μM): 17
Frequency of Formation ([2]; Expt 2 pMON10079, 50 μM): 43%

OC[C@H]1O[C@@](CO)(O[C@H]2O[C@H](CO)[C@@H](O)[C@H](O)[C@H]2O)[C@@H](O)[C@@H]1O [sucrose]
# Plantlets with Expanded Leaves [3, 5]: 7
Transformation Frequency [3, 5]: 47%
# Plantlets with Expanded Leaves [3, 6]: 10
Transformation Frequency [3, 6]: 43%
# Plantlets with Expanded Leaves [3, 7]: 6
Transformation Frequency [3, 7]: 27%
# Plantlets with Expanded Leaves [3, 8]: 5
Transformation Frequency [3, 8]: 28%
effect on frequency of embryo germination and plantlet formation ([3]; concentrations ranging from about 0% to 0.5% (w/v) in germination media): significantly increased the frequency of embryo germination and plantlet formation

O=[N+]([O-])c1ccc(O)c([N+](=O)[O-])c1 [DNP, 2,4-dinitrophenol]
Embryogenic Calli Formed ([2]; Expt 1 pMON10517, 1 μM): 17
Frequency of Formation ([2]; Expt 1 pMON10517, 1 μM): 43%
Embryogenic Calli Formed ([2]; Expt 2 pMON10079, 1 μM): 16
Frequency of Formation ([2]; Expt 2 pMON10079, 1 μM): 40%
